Data reported in the CheMixHub viscosity set.
Values joined by “and” are separate entries in the source; they are usually repeats but may differ in a detail not shown here. Equal values may be shown once. ± gives the uncertainty stated by the source.

Assay: xn = mol fraction of the nth substance listed

CCC(C)=O + C1CCCCC1
Details	viscosity [mPa·s]
293.15 K, 101.33 kPa, x2 = 0.0479	0.401 ± 0.008
293.15 K, 101.33 kPa, x2 = 0.0956	0.404 ± 0.008
293.15 K, 101.33 kPa, x2 = 0.1983	0.433 ± 0.008
293.15 K, 101.33 kPa, x2 = 0.3046	0.466 ± 0.009
293.15 K, 101.33 kPa, x2 = 0.4002	0.488 ± 0.009
293.15 K, 101.33 kPa, x2 = 0.5028	0.53 ± 0.009
293.15 K, 101.33 kPa, x2 = 0.6056	0.581 ± 0.01
293.15 K, 101.33 kPa, x2 = 0.703	0.641 ± 0.011
293.15 K, 101.33 kPa, x2 = 0.8048	0.72 ± 0.012
293.15 K, 101.33 kPa, x2 = 0.9029	0.824 ± 0.014
293.15 K, 101.33 kPa, x2 = 0.9515	0.888 ± 0.014
298 K, 101.3 kPa, x2 = 0.126	0.426 ± 0.006
298 K, 101.3 kPa, x2 = 0.2633	0.448 ± 0.006
298 K, 101.3 kPa, x2 = 0.4524	0.501 ± 0.006
298 K, 101.3 kPa, x2 = 0.6037	0.554 ± 0.006
298 K, 101.3 kPa, x2 = 0.8267	0.685 ± 0.007
298.15 K, 101 kPa, x2 = 0.1	0.41 ± 0.004
298.15 K, 101 kPa, x2 = 0.2	0.425 ± 0.005
298.15 K, 101 kPa, x2 = 0.3	0.444 ± 0.005
298.15 K, 101 kPa, x2 = 0.4	0.472 ± 0.005
298.15 K, 101 kPa, x2 = 0.5	0.508 ± 0.005
298.15 K, 101 kPa, x2 = 0.6	0.548 ± 0.006
298.15 K, 101 kPa, x2 = 0.7	0.595 ± 0.006
298.15 K, 101 kPa, x2 = 0.8	0.665 ± 0.007
298.15 K, 101 kPa, x2 = 0.9	0.752 ± 0.007
298.15 K, 101.33 kPa, x2 = 0.0479	0.381 ± 0.007
298.15 K, 101.33 kPa, x2 = 0.0956	0.39 ± 0.008
298.15 K, 101.33 kPa, x2 = 0.1983	0.41 ± 0.008
298.15 K, 101.33 kPa, x2 = 0.3046	0.441 ± 0.008
298.15 K, 101.33 kPa, x2 = 0.4002	0.459 ± 0.008
298.15 K, 101.33 kPa, x2 = 0.5028	0.498 ± 0.009
298.15 K, 101.33 kPa, x2 = 0.6056	0.543 ± 0.01
298.15 K, 101.33 kPa, x2 = 0.703	0.597 ± 0.01
298.15 K, 101.33 kPa, x2 = 0.8048	0.668 ± 0.011
298.15 K, 101.33 kPa, x2 = 0.9029	0.76 ± 0.013
298.15 K, 101.33 kPa, x2 = 0.9515	0.816 ± 0.013
303.15 K, 101.33 kPa, x2 = 0.0479	0.363 ± 0.007
303.15 K, 101.33 kPa, x2 = 0.0956	0.37 ± 0.007
303.15 K, 101.33 kPa, x2 = 0.1983	0.388 ± 0.007
303.15 K, 101.33 kPa, x2 = 0.3046	0.419 ± 0.008
303.15 K, 101.33 kPa, x2 = 0.4002	0.433 ± 0.008
303.15 K, 101.33 kPa, x2 = 0.5028	0.468 ± 0.009
303.15 K, 101.33 kPa, x2 = 0.6056	0.51 ± 0.009
303.15 K, 101.33 kPa, x2 = 0.703	0.558 ± 0.01
303.15 K, 101.33 kPa, x2 = 0.8048	0.622 ± 0.011
303.15 K, 101.33 kPa, x2 = 0.9029	0.705 ± 0.012
303.15 K, 101.33 kPa, x2 = 0.9515	0.754 ± 0.013
307.35 K, 101.33 kPa, x1 = 0.1093	0.648 ± 0.01
307.35 K, 101.33 kPa, x1 = 0.361	0.504 ± 0.0093
307.35 K, 101.33 kPa, x1 = 0.4975	0.453 ± 0.0089
307.35 K, 101.33 kPa, x1 = 0.555	0.429 ± 0.0086
307.35 K, 101.33 kPa, x1 = 0.6809	0.413 ± 0.0085
307.35 K, 101.33 kPa, x1 = 0.8865	0.366 ± 0.0081
318 K, 101.3 kPa, x2 = 0.1257	0.349 ± 0.015
318 K, 101.3 kPa, x2 = 0.2611	0.3682 ± 0.015
318 K, 101.3 kPa, x2 = 0.4518	0.3996 ± 0.016
318 K, 101.3 kPa, x2 = 0.6033	0.4343 ± 0.017
318 K, 101.3 kPa, x2 = 0.8254	0.5157 ± 0.02

COC(C)=O + Cc1cccc(C)c1
viscosity [mPa·s], 101 kPa
Details	298.15 K	308.15 K
x1 = 0.0409	0.565 ± 0.005	0.515 ± 0.004
x1 = 0.151	0.524 ± 0.004	0.484 ± 0.004
x1 = 0.2488	0.493 ± 0.004	0.46 ± 0.004
x1 = 0.3516	0.466 ± 0.004	0.438 ± 0.004
x1 = 0.4423	0.446 ± 0.004	0.421 ± 0.004
x1 = 0.4928	0.436 ± 0.004	0.412 ± 0.004
x1 = 0.5514	0.426 ± 0.004	0.403 ± 0.004
x1 = 0.6505	0.412 ± 0.004	0.388 ± 0.004
x1 = 0.7498	0.4 ± 0.004	0.376 ± 0.004
x1 = 0.8506	0.392 ± 0.004	0.364 ± 0.004
x1 = 0.9429	0.386 ± 0.004	0.356 ± 0.004

O=C(O)c1ccccc1 + c1ccccc1
viscosity
Details	303.15 K	308.15 K	313.15 K	318.15 K
101 kPa, x1 = 0.0581	0.6414 ± 0.016 mPa·s	0.5991 ± 0.015 mPa·s	0.5625 ± 0.014 mPa·s	0.5267 ± 0.013 mPa·s
101 kPa, x1 = 0.105	–	0.6626 ± 0.017 mPa·s	0.622 ± 0.016 mPa·s	0.5832 ± 0.015 mPa·s
101.33 kPa, x1 = 0.0581	0.6414 ± 0.0045 mPa·s	0.5991 ± 0.0042 mPa·s	0.5625 ± 0.0039 mPa·s	0.5267 ± 0.0037 mPa·s
101.33 kPa, x1 = 0.05813	–	0.5991 ± 0.02 mPa·s	–	0.5267 ± 0.017 mPa·s
101.33 kPa, x1 = 0.06979	–	0.616 ± 0.02 mPa·s	–	0.5401 ± 0.018 mPa·s
101.33 kPa, x1 = 0.08477	–	0.6421 ± 0.021 mPa·s	–	0.56 ± 0.018 mPa·s
101.33 kPa, x1 = 0.105	–	0.6626 ± 0.0046 mPa·s and 0.6626 ± 0.022 mPa·s	0.622 ± 0.0044 mPa·s	0.5832 ± 0.0041 mPa·s and 0.5832 ± 0.019 mPa·s
101.33 kPa, x1 = 0.1232	–	–	–	0.61 ± 0.02 mPa·s

COC(C)=O + CCCCCO
298.15 K, 101.33 kPa
Details	viscosity [mPa·s]
x1 = 0.1014	2.381 ± 0.057
x1 = 0.2082	1.64 ± 0.037
x1 = 0.2879	1.292 ± 0.028
x1 = 0.3821	1.011 ± 0.022
x1 = 0.4786	0.823 ± 0.017
x1 = 0.5766	0.69 ± 0.015
x1 = 0.6788	0.575 ± 0.012
x1 = 0.7517	0.505 ± 0.011
x1 = 0.846	0.425 ± 0.009

COC(C)=O + CC(O)CO
Details	viscosity [mPa·s]
298.15 K, 101 kPa, x1 = 0.251	12.35 ± 0.2

CCCCCCCC(=O)OCC + CCCCCCCCCCCCCCCC
Details	viscosity [mPa·s]
295.04 K, 103 kPa, x2 = 0.5	2.176 ± 0.088
298.65 K, 103 kPa, x2 = 0.25	1.72 ± 0.07
312.63 K, 101 kPa, x2 = 0.5	1.583 ± 0.064
